Reference: publication PMC10895676, “Antiviral Activity of Lipophilic Nucleoside Tetraphosphate Compounds” (Journal of Medicinal Chemistry, 2024)
Read-outs that look alike come from different tables or passages of the source.

What was measured:
HIV-RT = molecular target: T1, HIV-RT (Human immunodeficiency virus type 1 group M subtype B, UniProt P03366); test: Primer extension assay using HIV-RT; format: biochemical; conditions: 30 min, 6 U HIV-RT, 37 °C
T1 construct: HIV-RT HIV reverse transcriptase; purchased Roboklon
Method: Figure 6 Primer extension assay using HIV-RT (A), human polymerases α (B), β (C), and γ (D). (Figure 6A). Primer extension assay using HIV-RT (30 min, 6U). Lane 1: (+) dATP, dCTP, dGTP, and TTP with HIV-RT. Lane 2: (−) dATP, dCTP, dGTP, and TTP without HIV-RT. Lane 3: TTP. […] Lane 5: δ-(C4; C18)-d4T4P 4d. […] Lane 7: δ-(C18)-d4T4P 20. Lane 8: δ-C-(C18)-d4T4P 24. Lane 9: d4T4P. Lane 10: d4TTP. Lane 11: d4TDP. HIV-RT assay reaction conditions: 50 mM Tris–HCl (pH 8.6), 10 mM MgCl2, 40 mM KCl, 250 μM dNTPs, HIV-RT (6 U), 0.20 μM DNA hybrid, primer-template-hybrid 0.32 mM in a reaction volume of 10 μL, incubated at 37 °C for 0.5 h, 80 °C for 7 min. Primer extension assays: 50 mA, 45 w for 4 h. (Figure 6B). For human DNA polymerase α assay (60 min, 2 U): Lane 1: (+) dATP, dCTP, dGTP, and TTP with human polymerase α. Lane 2: (−) dATP, dCTP, dGTP, and TTP without human polymerase α. Lane 3: TTP. […] Lane 5: δ-(C4; C18)-d4T4P 4d. […] Lane 7: δ-(C18)-d4T4P 20. Lane 8: δ-C-(C18)-d4T4P 24. Lane 9: d4T4P. Lane 10: d4TTP. Human DNA polymerase α assay conditions: 60 mM Tris–HCl (pH 8), 5 mM Mg(OAc)2, 100 mM KCl, 1.0 mM dithiothreitol, 0.1 mM spermine, 0.01% (w/v) bovine serum albumin, 250 μM dNTPs, 2 U human polymerase α, 0.20 μM DNA hybrid, and primer-template-hybrid 0.32 mM in a reaction volume of 10 μL, incubated at 37 °C for 1 h, 80 °C for 7 min. Primer extension assays: 50 mA, 45 w for 3 h. (Figure 6C). For human DNA polymerase β assay (60 min, 2 U): Lane 1: (+) dATP, dCTP, dGTP, and TTP with human polymerase β. Lane 2: (−) dATP, dCTP, dGTP, and TTP without human polymerase β. Lane 3: TTP. […] Lane 5: δ-(C4; C18)-d4T4P 4d. […] Lane 7: δ-(C18)-d4T4P 20. Lane 8: δ-C-(C18)-d4T4P 24. Lane 9: d4T4P. Lane 10: d4TTP. Human DNA polymerase β assay conditions: 50 mM Tris–HCl (pH 8.7), 10 mM Mg(OAc)2, 100 mM KCl, 1.0 mM dithiothreitol, 0.1 mM spermine, 0.01% (w/v) bovine serum albumin, 15% glycerol, 250 μM dNTPs, 2 U human DNA polymerase β, 0.20 μM DNA hybrid, and primer-template-hybrid 0.32 mM in a reaction volume of 10 μL, incubated at 37 °C for 1 h, 80 °C for 7 min. Primer extension assays: 50 mA, 45 w for 3 h. (Figure 6D), For the human DNA polymerase γ assay (120 min, 2 U): Lane 1: (+) dATP, dCTP, dGTP, and TTP with human polymerase γ. Lane 2: (−) dATP, dCTP, dGTP, and TTP without human polymerase γ. Lane 3: TTP. […] Lane 5: δ-(C4; C18)-d4T4P 4d. […] Lane 7: δ-(C18)-d4T4P 20. Lane 8: δ-C-(C18)-d4T4P 24. Lane 9: d4T4P. Lane 10: d4TTP. Human polymerase γ assay conditions: 60 mM Tris–HCl (pH 8), 5 mM Mg(OAc)2, 1.0 mM dithiothreitol, 0.1 mM spermine, 0.01% (w/v) bovine serum albumin, 250 μM dNTPs, 2 U human polymerase γ, 0.5 μM MnCl2, 0.20 μM DNA hybrid, primer-template-hybrid 0.32 mM in a reaction volume of 10 μL, incubated at 37 °C for 2 h, 80 °C for 7 min. Primer extension assays: 50 mA, 45 w for 3 h.
HIV-RT and human polymerases α, β, and γ were bought from Roboklon and Chimerx. The fluorescent-labeled primer and template were obtained from Metabion.
For the annealing of the primer/template mixture, 40 μL of the 10 μM primer and 60 μL of the 10 μM template were incubated for 5 min at 95 °C. Then, for optimal annealing, the temperature was reduced over a period of 2 h to 20 °C and incubated again for 20 min at 20 °C.
For the primer extension, the reaction mixture was incubated for 30 min for the HIV-RT, 60 min for the human DNA polymerase α, and 120 min for the human DNA polymerases β and γ at 37 °C, followed by 7 min at 80 °C.

HIV-1 (HE) = test: Anti-HIV replication assay, HIV-1 (HE) in wild-type CEM/0 cells; format: cell-based; conditions: Human immunodeficiency virus 1, CCRF-CEM, read-out: HIV-1 (HE) EC50
Summary of the method: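 Wild-type CEM/0 CD4+ T-cells (~3 × 10^5 cells/mL) infected with 100 CCID50/mL HIV-1(HE) alongside compound dilutions, incubated 4–5 days at 37 °C. Syncytia (giant cell) formation scored microscopically; EC50 is the concentration inhibiting HIV-induced giant cell formation by 50%.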

[1] = Cytotoxicity, inhibition of CEM cell proliferation; format: cell-based; conditions: human, CEM cells (CD4+ T-cells), read-out: toxicity CC50
[2] = Chemical hydrolysis in aqueous buffers (PBS pH 7.3 / 8.0, citrate buffer pH 2.0), RP18-HPLC; format: physicochemical; conditions: for half-life: 25 mM citrate buffer, pH 2.0, 37 °C; for half-life at 1.9 mM: phosphate buffered saline
Summary of the method: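 Compound incubated at 37 °C in PBS pH 7.3 or 8.0, or citrate/NaCl/HCl buffer adjusted to pH 2.0 with NaOH. Aliquots sampled over time, stored at −30 °C, and hydrolysis products quantified by RP18-HPLC with UV detection.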

[3] = wild-type CEM/0 cells, mean ± SD, n = 2–3
[4] = 25 mM PBS, pH 7.3, 37 °C, read-out: PBS pH 7.3 t1/2 (converted)
[5] = PBS, pH 8.0, 37 °C, read-out: PBS pH 8.0 t1/2 (converted)

Row | Structure (SMILES) | substrate for HIV-RT (primer extension) (HIV-RT) | EC50 (HIV-1 (HE); [3]) | CC50 [1] | half-life [2] | half-life at 1.9 mM [2, 4] | half-life at 1.9 mM [2, 5] | EC50 (HIV-1 (HE))
1 | CCCCCCCCCCCCCCCCCCOP(=O)(OCCCC)OP(=O)(O)OP(=O)(O)OP(=O)(O)OC[C@@H]1C=C[C@H](n2cc(C)c(=O)[nH]c2=O)O1 (some centres unmarked) [4d, δ-(Alkyl-C4; alkyl-C18)-d4T4P] | good substrates | 110 ± 10 nM | 43900 nM | 66 h | 251 h | > 100 h | 
2 | CCCCCCCCCCCCCCCCCCP(=O)(OCCCC)OP(=O)(O)OP(=O)(O)OP(=O)(O)OC[C@@H]1C=C[C@H](n2cc(C)c(=O)[nH]c2=O)O1 (some centres unmarked) [5a, δ-(Alkyl-C4)-δ-C-(alkyl-C18)-d4T4P] | good substrates |  | 44600 nM | > 150 h | > 1000 h | > 200 h | 330 ± 90 nM
3 | CCCCCCCCCCCCCCCCCCOP(=O)(O)OP(=O)(O)OP(=O)(O)OP(=O)(O)OC[C@@H]1C=C[C@H](n2cc(C)c(=O)[nH]c2=O)O1 [compound 20, δ-(Alkyl-C18)-d4T4P] | substrates | 710 ± 260 nM | > 100000 nM |  | 132 h |  | 
4 | CCCCCCCCCCCCCCCCCCP(=O)(O)OP(=O)(O)OP(=O)(O)OP(=O)(O)OC[C@@H]1C=C[C@H](n2cc(C)c(=O)[nH]c2=O)O1 [compound 24, δ-C-(Alkyl-C18)-d4T4P] | substrates | 430 ± 370 nM | 23200 nM |  | > 1000 h |  | 
5 | Cc1cn([C@H]2C=C[C@@H](COP(=O)(O)OP(=O)(O)OP(=O)(O)OP(=O)(O)O)O2)c(=O)[nH]c1=O [d4T4P, 2′,3′-didehydro-2′,3′-dideoxythymidine-5′-tetraphosphate] | substrate | 420 ± 160 nM | > 100000 nM | > 150 h | 534 h | > 150 h | 
